Source: paper PMC12041855 (2025)

What was measured:
[1] = tested on: Zar1 5′-UTR^ΔrG4 (RNA, single strand) UGAACAAACGAAACACGAAACGCACCC; assay: CD melting at 262 nm; settings: 20 mM KCl; 10 mM Tris-HCl pH 7.4; 10 μM BYBX, 5 μM RNA; no melting transition seen
[2] = tested on: Zar1 5′-UTR (RNA, G4) UGGGCGGGCGAGGCGCGGGACGCACCC; assay: ITC; settings: 60 mM KCl, 25 mM KH2PO4; pH 7.4, 0.4% DMSO, 25°C; one set of sites; 10 μM RNA, 100 μM BYBX in syringe
[3] = tested on: Zar1 5′-UTR^ΔrG4 (RNA, single strand) UGAACAAACGAAACACGAAACGCACCC; assay: ITC; settings: 60 mM KCl, 25 mM KH2PO4; pH 7.4, 0.4% DMSO, 25°C; n.d., signal too weak; 100 μM BYBX in syringe
[4] = tested on: Zar1 5′-UTR (RNA, G4) UGGGCGGGCGAGGCGCGGGACGCACCC; assay: CD titration; settings: 100 mM KCl; 10 mM Tris-HCl pH 7.4, 25°C; 5 μM RNA, 5-20 μM BYBX
[5] = tested on: Zar1 5′-UTR (RNA, G4) UGGGCGGGCGAGGCGCGGGACGCACCC; assay: CD melting at 262 nm; settings: 20 mM KCl; 10 mM Tris-HCl pH 7.4; 10 μM BYBX, 5 μM RNA
[6] = tested on: Zar1 5′-UTR^ΔrG4 (RNA, single strand) UGAACAAACGAAACACGAAACGCACCC; assay: fluorescence titration (ex 447 nm, em 538 nm); settings: 100 mM KCl; 10 mM Tris-HCl pH 7.4, 25°C; 1 μM BYBX; almost no emission
[7] = tested on: Zar1 5′-UTR (RNA, G4) UGGGCGGGCGAGGCGCGGGACGCACCC; assay: fluorescence titration (ex 447 nm, em 538 nm); settings: 100 mM KCl; 10 mM Tris-HCl pH 7.4, 25°C; 1 μM BYBX, RNA 0-1.9 μM; 50-fold enhancement

ΔTm [1]: 0.06 °C | KD [2]: 393 nM | binding [3]: no | binding [4]: yes | ΔTm [5]: 11 °C | binding [6]: no | binding [7]: yes
SMILES: CN1/C(=C/C2=[N+](CC(N)=O)c3ccc4ccccc4c3C2(C)C)Sc2ccccc21
